Assay results published in US8686115B2, “Compositions and methods for quantitatively monitoring lipids” (The Board of Trustees of the University of Illinois, priority 2009, dated 2014).
Residue numbers refer to the chain shown, from its start.

How the values were obtained:
[1] = biological target: T1, epsin 1 ENTH domain (SEQ ID NO: 1) variant C96A (Homo sapiens, UniProt Q9Y6I3, C96A); assay: SPR equilibrium binding of epsin1 ENTH C96A to phosphoinositide-containing LUVs; conditions: POPC/POPS/PtdIns(4,5)P2 (77:20:3) LUVs, 20 mM Tris-HCl pH 7.4, 0.16 M KCl, read-out: Kd for PtdIns(4,5)P2
T1 construct: The Epsin1 ENTH domain (1-158 amino acids) was subcloned; GST (C, cleaved yes); made in house; host or cells: E. coli BL21 RIL codon plus
T1 sequence (Q9Y6I3 1-158 C96A): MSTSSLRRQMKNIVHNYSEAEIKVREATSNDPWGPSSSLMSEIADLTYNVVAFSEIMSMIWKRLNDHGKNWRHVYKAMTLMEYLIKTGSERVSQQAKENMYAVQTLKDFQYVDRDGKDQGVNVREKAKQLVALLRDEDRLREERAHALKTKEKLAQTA
Text: (§1) The ENTH domain was engineered to introduce a single labeling site (M10C) on the membrane binding surface while removing an endogenous Cys (C96A). We also performed the S4W mutation to suppress its residual affinity for another lipid, phosphatidylinositol-3,4,5-trisphosphate (PtdIns(3,4,5)P3) (PtdIns(4,5)P2/PtdIns(3,4,5)P3=4 for wild type and >10 for the mutant) and to enhance the overall affinity for PtdIns(4,5)P2-containing membranes (ca. 4-fold) (Table 1).
(§2) With respect to FIG. 1, an L1 sensor chip was coated with POPC/POPS/PtdIns(4,5)P2 (77:20:3) LUVs. The proteins were incubated with a given concentration of IP3 for 5 minutes before injecting into the SPR instrument. Kinetic SPR measurements were performed in 20 mM Tris-HCL, pH 7.4, containing 0.16 KCl. […] A lower concentration of DAN-eENTH was used than that of PLCδ PH because the former has much higher affinity that the latter.
(§3) All mutations (S4W, M10C, and C96A) were performed by polymerase chain reaction mutagenesis and verified by DNA sequencing. eENTH may comprise the following sequence:
E. coli BL21 RIL codon plus (Stratagene) cells were used for protein expression. Cells were grown in Luria broth media containing 100 μg/ml of ampicillin at 37° C. 0.1 mM of Isopropyl β-D-1-thiogalactopyranoside was added to induce over-expression of recombinant proteins when the OD600 reached 0.5-0.8 and cells were grown for additional 6 to 10 hours at 25° C. Cells were harvested by centrifugation and cell pellets were resuspended in 50 mM Tris-HCl buffer (pH 7.4) containing 160 mM KCl, 1 mM phenylmethanesulphonylfluoride, and 5 mM of dithiothreitol (DTT). Cells were lysed by sonication and the lysate was collected by centrifugation at 4° C. […] Purity and the concentration of the recombinant proteins were determined by sodium dodecylsulfate-polyacrylamide gel electrophoresis and bicinchoninic acid assay, respectively. The DAN labeling yield of eENTH, which was calculated as the molar ratio of DAN (determined spectrophotometrically at 391 nm using its extinction coefficient of 20,000 cm^−1 M^−1) to protein, was typically 60-70%. […]

[2] = biological target: T2, epsin 1 ENTH domain (SEQ ID NO: 1) variant C96A/S4W (eENTH; SEQ ID NO: 2) (Homo sapiens, UniProt Q9Y6I3, C96A/M10C/S4W); assay: SPR equilibrium binding of epsin1 ENTH C96A/S4W (eENTH) to phosphoinositide-containing LUVs; conditions: S4W mutant
T2 construct: The Epsin1 ENTH domain (1-158 amino acids) was subcloned; GST (C, cleaved yes); made in house; host or cells: E. coli BL21 RIL codon plus
T2 sequence (Q9Y6I3 1-158 S4W/M10C/C96A): T1 sequence (Q9Y6I3 1-158 C96A) with S4W, M10C
Text: as §1
as §2, with “latter. […]” for “latter.”
(§4) E. coli BL21 RIL codon plus (Stratagene) cells were used for protein expression. […] Purity and the concentration of the recombinant proteins were determined by sodium dodecylsulfate-polyacrylamide gel electrophoresis and bicinchoninic acid assay, respectively. The DAN labeling yield of eENTH, which was calculated as the molar ratio of DAN (determined spectrophotometrically at 391 nm using its extinction coefficient of 20,000 cm^−1 M^−1) to protein, was typically 60-70%. […]

[3] = tested on: epsin 1 ENTH domain (SEQ ID NO: 1) variant C96A/S4W (eENTH; SEQ ID NO: 2); assay: as above; conditions: S4W mutation, Table 1
Text: as §1
as §2, with “latter. […]” for “latter.”
as §4

[4] = biological target: T3, DAN-eENTH: epsin 1 ENTH domain variant M10C/C96A/S4W, SEQ ID NO: 2, labeled with DAN at C10 (Homo sapiens, UniProt Q9Y6I3, C96A/M10C/S4W); assay: SPR equilibrium binding of DAN-eENTH to phosphoinositide-containing LUVs
T3 construct: The Epsin1 ENTH domain (1-158 amino acids) was subcloned; GST (C, cleaved yes); made in house; host or cells: E. coli BL21 RIL codon plus
T3 sequence (Q9Y6I3 1-158 S4W/M10C/C96A): T1 sequence (Q9Y6I3 1-158 C96A) with S4W, M10C
Text: Provided herein is an ENTH domain of epsin1, which is linked to 2-dimethylamino-6-acyl-naphthalene (DAN). The ENTH domain contains 3 mutations, which are substitutions: M10C, C96A, and S4W. See SEQ ID NO:2. This DAN-eENTH (M10C, C96A, S4W) is an exceptional, high-affinity phosphatidylinositol-4,5-bisphosphate (PtdIns(4,5)P2)-binding protein.
as §1, §2, §3
E. coli BL21 RIL codon plus (Stratagene) cells were used for protein expression. Cells were grown in Luria broth media containing 100 μg/ml of ampicillin at 37° C. 0.1 mM of Isopropyl β-D-1-thiogalactopyranoside was added to induce over-expression of recombinant proteins when the OD600 reached 0.5-0.8 and cells were grown for additional 6 to 10 hours at 25° C. Cells were harvested by centrifugation and cell pellets were resuspended in 50 mM Tris-HCl buffer (pH 7.4) containing 160 mM KCl, 1 mM phenylmethanesulphonylfluoride, and 5 mM of dithiothreitol (DTT). Cells were lysed by sonication and the lysate was collected by centrifugation at 4° C. The GST-affinity resin (GenScript) for GST-tagged proteins or nickel-nitrilotriacetic acid resin (Qiagen, Valencia, Calif.) for His6-tagged proteins was added into the cell lysate and the mixture was gently shaken for 30 minutes at 4° C. The mixture was applied to a column and the column was washed once with 50 mM Tris-HCl buffer (pH 7.4) containing 160 mM KCl and 5 mM of DTT to reduce thiol group, and washed several times with the same buffer without DTT to remove DTT. For DAN labeling, 100 μg of acrylodan was added to the column at this stage and incubated 16 hours at 4° C. The excess acrylodan was removed by washing the column with the buffer several times. Thrombin (Invitrogen) was added to column to remove the GST tag and the mixture was incubated at 4° C. for 10 hours. The labeled protein was eluted from the column by and the collected fractions were applied to ion exchange column. Purity and the concentration of the recombinant proteins were determined by sodium dodecylsulfate-polyacrylamide gel electrophoresis and bicinchoninic acid assay, respectively. The DAN labeling yield of eENTH, which was calculated as the molar ratio of DAN (determined spectrophotometrically at 391 nm using its extinction coefficient of 20,000 cm^−1 M^−1) to protein, was typically 60-70%.
LUVs were prepared by extrusion using a 100 nm-pore membrane. GUVs were prepared by electroformation. […]

Kd [1]: 53 nM
PtdIns(4,5)P2/PtdIns(3,4,5)P3 selectivity [2]: > 10
enhancement of overall affinity for PtdIns(4,5)P2-containing membranes [3]: ca. 4 fold
Kd ([4]; SPR, POPC/POPS/PtdIns(4,5)P2 (77:20:3) LUVs, 20 mM Tris-HCl pH 7.4, 0.16 M KCl, read-out: Kd for PtdIns(4,5)P2): 4 nM
affinity for PtdIns(4,5)P2-containing vesicles relative to eENTH ([4]; higher than eENTH): about 3 fold
affinity for PtdIns(4,5)P2-containing vesicles relative to wild type ([4]; higher than the wild type): 12 fold
SMILES: CCCCCCCCCCCCCCCC(=O)OC[C@H](COP(=O)(O)O[C@@H]1[C@H](O)[C@H](O)[C@@H](OP(=O)(O)O)[C@H](OP(=O)(O)O)[C@H]1O)OC(=O)CCCCCCCCCCCCCCC [PtdIns(4,5)P2, phosphatidylinositol-4,5-bisphosphate]
